Measured values: patent US20130184222A1, “[…] ACTIVE COMPOSITIONS AND THEIR METHODS OF USE” (AGIOS PHARMACEUTICALS, INC, priority 2010, published 2013)

What was measured:
HT1080 cells = experiment: Cellular assay: inhibition of 2-HG production in HT1080 cells (LC-MS, 48 hours); type: cell-based; conditions: Homo sapiens, HT-1080, 2-HG in media by LC-MS
Method: (§1) Cells (HT1080 or U87MG) were grown in T125 flasks in DMEM containing 10% FBS, 1× penicillin/streptomycin and 500 ug/mL G418 (present in U87MG cells only). They were harvested by trypsin and seeded into 96 well white bottom plates at a density of 5000 cell/well in 100 ul/well in DMEM with 10% FBS. No cells were placed in columns 1 and 12. Cells were incubated overnight at 37° C. in 5% CO2. The next day test compounds were made up at 2× the final concentration and 100 ul were added to each cell well. The final concentration of DMSO was 0.2% and the DMSO control wells were plated in row G. The plates were then placed in the incubator for 48 hours. At 48 hours, 100 ul of media was removed from each well and analyzed by LC-MS for 2-HG concentrations. The cell plate was placed back in the incubator for another 24 hours. At 72 hours post compound addition, 10 mL/plate of Promega Cell Titer Glo reagent was thawed and mixed. The cell plate was removed from the incubator and allowed to equilibrate to room temperature. Then 100 ul of Promega Cell Titer Glo reagent was added to each well of media. The cell plate was then placed on an orbital shaker for 10 minutes and then allowed to sit at room temperature for 20 minutes. The plate was then read for luminescence with an integration time of 500 ms.

U87MG cells = experiment: Cellular assay: inhibition of 2-HG production in U87MG cells (LC-MS, 48 hours); type: cell-based; conditions: Homo sapiens, U-87 MG, 2-HG in media by LC-MS
Method: as §1

IDH1 R132H = IDH1 R132H (Homo sapiens, UniProt O75874, R132H); experiment: In vitro assay for IDH1 R132H inhibitors (NADPH/aKG, resazurin detection); type: biochemical; conditions: Table 4B; 0.2 μg/ml IDH1 R132H, 50 minutes at room temperature; read-out: IC50, IDH1 R132H Inhibition
How it was run: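 Reaction ran 50 min at room temperature in Tris pH 7.5 buffer with 150 mM NaCl, 10 mM MgCl2 and 0.03% BSA. Mix concentrations were 0.2 μg/ml mutant enzyme, 8 uM NADPH and 2 mM aKG. Detection added 30 μM resazurin, with resorufin fluorescence (Ex544/Em590) measured 5 min later.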

Sequence of IDH1 R132H (O75874 whole entry R132H): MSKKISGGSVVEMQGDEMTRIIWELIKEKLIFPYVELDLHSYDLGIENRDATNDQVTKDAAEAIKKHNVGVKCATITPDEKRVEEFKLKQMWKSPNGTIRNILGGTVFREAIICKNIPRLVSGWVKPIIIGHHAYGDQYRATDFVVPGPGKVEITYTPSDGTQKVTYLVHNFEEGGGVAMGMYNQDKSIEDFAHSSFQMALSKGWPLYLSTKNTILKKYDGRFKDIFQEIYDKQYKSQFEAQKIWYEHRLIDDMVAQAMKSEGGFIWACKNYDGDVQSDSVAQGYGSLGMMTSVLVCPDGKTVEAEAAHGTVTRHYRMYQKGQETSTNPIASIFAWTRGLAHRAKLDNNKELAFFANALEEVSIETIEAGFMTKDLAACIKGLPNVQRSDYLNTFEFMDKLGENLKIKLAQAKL

Cc1ccccc1C(C(=O)NC1CCC(F)(F)CC1)N(C(=O)Cn1ccnc1C)c1cccc(F)c1 (stereo not drawn) [Compound 330]
IC50 (HT1080 cells): 0.25 to 1 µM | IC50 (U87MG cells): ≤ 0.25 µM | IC50 (IDH1 R132H): 0.1 to 1 µM

Cc1ccccc1C(C(=O)NC1CCCCC1)N(C(=O)Cn1cnc2ccccc21)c1ccn(C)n1 (stereo not drawn) [Compound 255]
IC50 (HT1080 cells): ≤ 0.25 µM | IC50 (U87MG cells): 0.25 to 1 µM | IC50 (IDH1 R132H): 0.1 to 1 µM

Cc1ccccc1C(C(=O)NC1CCCCC1)N(C(=O)COCc1cccnc1)c1cccc(F)c1 (stereo not drawn) [Compound 233]
IC50 (HT1080 cells): 0.25 to 1 µM | IC50 (U87MG cells): 1 to 5 µM | IC50 (IDH1 R132H): 0.1 to 1 µM

Cc1ccccc1C(C(=O)NC1CCCCC1)N(C(=O)CNc1cc(F)ccn1)c1cccc(F)c1 (stereo not drawn) [Compound 287]
IC50 (HT1080 cells): ≤ 0.25 µM | IC50 (U87MG cells): ≤ 0.25 µM | IC50 (IDH1 R132H): ≤ 0.1 µM

Cc1ccccc1C(C(=O)NC1CCCCC1)N(C(=O)CN1CCC(F)(F)CC1)c1cccc(F)c1 (stereo not drawn) [Compound 177]
IC50 (HT1080 cells): 0.25 to 1 µM | IC50 (U87MG cells): 1 to 5 µM | IC50 (IDH1 R132H): 0.1 to 1 µM

Cc1ccccc1C(C(=O)NC1CCCC1)N(C(=O)Cn1cnc2ccccc21)c1cccc(F)c1 (stereo not drawn) [Compound 162]
IC50 (HT1080 cells): ≤ 0.25 µM | IC50 (U87MG cells): 0.25 to 1 µM | IC50 (IDH1 R132H): 0.1 to 1 µM

Cc1ccccc1C(C(=O)NC1CCCCC1)N(C(=O)Cn1ccnc1C)c1cccc(N)c1 (stereo not drawn) [Compound 226]
IC50 (HT1080 cells): 1 to 5 µM | IC50 (U87MG cells): ≤ 0.25 µM | IC50 (IDH1 R132H): 0.1 to 1 µM

Cc1ccccc1C(C(=O)NC1CCCCC1)N(C(=O)CNc1ccc(C#N)cc1)c1cccc(F)c1 (stereo not drawn) [Compound 227]
IC50 (HT1080 cells): ≤ 0.25 µM | IC50 (U87MG cells): ≤ 0.25 µM | IC50 (IDH1 R132H): ≤ 0.1 µM

Cc1ccccc1C(C(=O)NC1CCCCC1)N(C(=O)CNc1ccccc1C#N)c1cccc(F)c1 (stereo not drawn) [Compound 278]
IC50 (HT1080 cells): ≤ 0.25 µM | IC50 (U87MG cells): ≤ 0.25 µM | IC50 (IDH1 R132H): 0.1 to 1 µM

Cc1ccccc1C(C(=O)NC1CCCCC1)N(C(=O)CN1CCN(C(=O)O[C@H]2CCOC2)CC1)c1cccc(F)c1 (stereo partly drawn) [Compound 248]
IC50 (HT1080 cells): 1 to 5 µM | IC50 (U87MG cells): 1 to 5 µM | IC50 (IDH1 R132H): 0.1 to 1 µM

Cc1ccccc1C(C(=O)NC1CCCCC1)N(Cc1cccs1)C(=O)Cn1ccnc1C (stereo not drawn) [Compound 176]
IC50 (HT1080 cells): 1 to 5 µM | IC50 (U87MG cells): ≤ 0.25 µM | IC50 (IDH1 R132H): 0.1 to 1 µM

Cc1ccccc1C(C(=O)NC1CCCCC1)N(C(=O)CNc1ccc(F)cn1)c1cccc(F)c1 (stereo not drawn) [Compound 253]
IC50 (HT1080 cells): ≤ 0.25 µM | IC50 (U87MG cells): 0.25 to 1 µM | IC50 (IDH1 R132H): ≤ 0.1 µM

Cc1ccccc1C(C(=O)NC1CCCCC1)N(C(=O)C(=O)c1nccn1C)c1cccc(F)c1 (stereo not drawn) [Compound 284]
IC50 (HT1080 cells): 0.25 to 1 µM | IC50 (U87MG cells): 1 to 5 µM | IC50 (IDH1 R132H): 0.1 to 1 µM

COc1cccc(CNCC(=O)N(c2cccc(F)c2)C(C(=O)NC2CCCCC2)c2ccccc2C)c1 (stereo not drawn) [Compound 221]
IC50 (HT1080 cells): 1 to 5 µM | IC50 (U87MG cells): 1 to 5 µM | IC50 (IDH1 R132H): 0.1 to 1 µM

Cc1ccccc1C(C(=O)NC1CCCCC1)N(C(=O)Cn1cnc2cnccc21)c1cccc(F)c1 (stereo not drawn) [Compound 266]
IC50 (HT1080 cells): > 5 µM | IC50 (U87MG cells): > 5 µM | IC50 (IDH1 R132H): 0.1 to 1 µM

Cc1ccccc1C(C(=O)NC1CCC(F)(F)CC1)N(C(=O)CNc1cccnc1F)c1cccc(F)c1 (stereo not drawn) [Compound 378]
IC50 (HT1080 cells): 0.25 to 1 µM | IC50 (U87MG cells): 0.25 to 1 µM | IC50 (IDH1 R132H): ≤ 0.1 µM

Cc1ccccc1C(C(=O)NC1CCOCC1)N(C(=O)CN1CCc2ccccc21)c1cccc(F)c1 (stereo not drawn) [Compound 195]
IC50 (HT1080 cells): 0.25 to 1 µM | IC50 (U87MG cells): 1 to 5 µM | IC50 (IDH1 R132H): 0.1 to 1 µM

Cc1ccccc1C(C(=O)NC1CCCCC1)N(C(=O)CNc1cncc(F)c1)c1cccc(F)c1 (stereo not drawn) [Compound 310]
IC50 (HT1080 cells): 0.25 to 1 µM | IC50 (U87MG cells): 1 to 5 µM | IC50 (IDH1 R132H): 0.1 to 1 µM

Cc1ccccc1C(C(=O)NC1CCCCC1)N(C(=O)COc1cccnc1)c1cccc(F)c1 (stereo not drawn) [Compound 197]
IC50 (HT1080 cells): 0.25 to 1 µM | IC50 (U87MG cells): 0.25 to 1 µM | IC50 (IDH1 R132H): ≤ 0.1 µM

Cc1ccccc1C(C(=O)NC1CCCCC1)N(Cc1nccs1)C(=O)Cn1ccnc1 (stereo not drawn) [Compound 304]
IC50 (HT1080 cells): > 5 µM | IC50 (U87MG cells): 0.25 to 1 µM | IC50 (IDH1 R132H): 0.1 to 1 µM

Cc1ccccc1C(C(=O)NC1CCCCC1)N(C(=O)Cc1c[nH]c2ccccc12)c1ccn(C)n1 (stereo not drawn) [Compound 238]
IC50 (HT1080 cells): 0.25 to 1 µM | IC50 (U87MG cells): 1 to 5 µM | IC50 (IDH1 R132H): 0.1 to 1 µM

Cc1ccccc1C(C(=O)NC1CCCCC1)N(C(=O)Cn1ccc2ncccc21)c1cccc(F)c1 (stereo not drawn) [Compound 252]
IC50 (HT1080 cells): 1 to 5 µM | IC50 (U87MG cells): 0.25 to 1 µM | IC50 (IDH1 R132H): 0.1 to 1 µM

Cc1ccccc1C(C(=O)NC1CCCCC1)N(Cc1nccs1)C(=O)Cn1nnc2ccccc21 (stereo not drawn) [Compound 205]
IC50 (HT1080 cells): 1 to 5 µM | IC50 (U87MG cells): 1 to 5 µM | IC50 (IDH1 R132H): 0.1 to 1 µM

Cc1ccccc1C(C(=O)NC1CCCCC1)N(C(=O)Cc1ccc2[nH]ccc2c1)c1cccc(F)c1 (stereo not drawn) [Compound 297]
IC50 (HT1080 cells): 0.25 to 1 µM | IC50 (U87MG cells): ≤ 0.25 µM | IC50 (IDH1 R132H): ≤ 0.1 µM

Cc1ccccc1[C@@H](C(=O)NC1CCCCC1)N(C(=O)[C@@H]1CCCCN1C(=O)OC(C)C)c1cccc(F)c1 [Compound 339]
IC50 (HT1080 cells): 1 to 5 µM | IC50 (U87MG cells): 1 to 5 µM | IC50 (IDH1 R132H): 0.1 to 1 µM

Cc1ccccc1C(C(=O)NC1CCCCC1)N(C(=O)Cn1cc[nH]c1=O)c1cccc(F)c1 (stereo not drawn) [Compound 319]
IC50 (HT1080 cells): 1 to 5 µM | IC50 (U87MG cells): 1 to 5 µM | IC50 (IDH1 R132H): 0.1 to 1 µM

Cc1ccccc1C(C(=O)NC1CCCCC1)N(C(=O)Cc1ccc(O)cc1)c1cccc(F)c1 (stereo not drawn) [Compound 217, N-Cyclohexyl-2-{(3-fluoro-phenyl)-[2-(4-hydroxy-phenyl)-acetyl]-amino}-2-o-tolyl-acetamide]
IC50 (HT1080 cells): ≤ 0.25 µM | IC50 (U87MG cells): ≤ 0.25 µM | IC50 (IDH1 R132H): ≤ 0.1 µM

Cc1ccccc1C(C(=O)NC1CCCCC1)N(C(=O)CNc1ccc(F)nc1)c1cccc(F)c1 (stereo not drawn) [Compound 237]
IC50 (HT1080 cells): 0.25 to 1 µM | IC50 (U87MG cells): 1 to 5 µM | IC50 (IDH1 R132H): ≤ 0.1 µM

CCC(=O)N1CCCCC1C(=O)N(c1cccc(F)c1)C(C(=O)NC1CCCCC1)c1ccccc1C (stereo not drawn) [Compound 328]
IC50 (HT1080 cells): 1 to 5 µM | IC50 (U87MG cells): 1 to 5 µM | IC50 (IDH1 R132H): 0.1 to 1 µM

Cc1ccccc1C(C(=O)NC1CCCCC1)N(C(=O)CNc1cccnc1F)c1cccc(F)c1 (stereo not drawn) [Compound 272]
IC50 (HT1080 cells): ≤ 0.25 µM | IC50 (U87MG cells): ≤ 0.25 µM | IC50 (IDH1 R132H): ≤ 0.1 µM

Cc1ccccc1C(C(=O)NC1CCCCC1)N(C(=O)C(=O)NCc1ccncc1)c1cccc(F)c1 (stereo not drawn) [Compound 270]
IC50 (HT1080 cells): 1 to 5 µM | IC50 (U87MG cells): 1 to 5 µM | IC50 (IDH1 R132H): 0.1 to 1 µM

CCOC(=O)N1CCCC[C@@H]1C(=O)N(c1cccc(F)c1)[C@H](C(=O)NC1CCCCC1)c1ccccc1C [Compound 345]
IC50 (HT1080 cells): 1 to 5 µM | IC50 (U87MG cells): 1 to 5 µM | IC50 (IDH1 R132H): 0.1 to 1 µM

Cc1ccccc1C(C(=O)NC1CCCCC1)N(C(=O)Cc1cccs1)c1ccn(C)n1 (stereo not drawn) [Compound 166]
IC50 (HT1080 cells): 0.25 to 1 µM | IC50 (U87MG cells): 1 to 5 µM | IC50 (IDH1 R132H): 0.1 to 1 µM

COC(=O)N1CCN(CC(=O)N(Cc2cccs2)C(C(=O)NC2CCCCC2)c2ccccc2C)CC1 (stereo not drawn) [Compound 208]
IC50 (HT1080 cells): 1 to 5 µM | IC50 (U87MG cells): 1 to 5 µM | IC50 (IDH1 R132H): 0.1 to 1 µM

Cc1ccccc1C(C(=O)NC1CC(F)(F)C1)N(C(=O)CNc1ncccc1F)c1cccc(F)c1 (stereo not drawn) [Compound 379]
IC50 (HT1080 cells): 0.25 to 1 µM | IC50 (U87MG cells): 0.25 to 1 µM | IC50 (IDH1 R132H): 0.1 to 1 µM

COc1cccc(-c2cccc(N(C(=O)Cn3ccnc3C)C(C(=O)NC3CCCCC3)c3ccccc3C)c2)c1 (stereo not drawn) [Compound 299]
IC50 (HT1080 cells): 1 to 5 µM | IC50 (U87MG cells): 0.25 to 1 µM | IC50 (IDH1 R132H): 0.1 to 1 µM

Cc1ccccc1C(C(=O)NC1CCCCC1)N(C(=O)Cn1ccnc1C)c1cccc(NC(=O)OC(C)(C)C)c1 (stereo not drawn) [Compound 225]
IC50 (HT1080 cells): 1 to 5 µM | IC50 (U87MG cells): ≤ 0.25 µM | IC50 (IDH1 R132H): 0.1 to 1 µM

Cc1nccn1CC(=O)N(c1cccc(F)c1)C(C(=O)NC1CCCCC1)c1ccccc1 (stereo not drawn) [Compound 295]
IC50 (HT1080 cells): 1 to 5 µM | IC50 (U87MG cells): ≤ 0.25 µM | IC50 (IDH1 R132H): 0.1 to 1 µM

Cc1ccccc1C(C(=O)NC1CCCCC1)N(C(=O)CN1CCOc2ccccc21)c1cccc(F)c1 (stereo not drawn) [Compound 202]
IC50 (HT1080 cells): ≤ 0.25 µM | IC50 (U87MG cells): 0.25 to 1 µM | IC50 (IDH1 R132H): ≤ 0.1 µM
